# Measurements published in patent publication US11938138B2, “Methods for improved treatment of cancer” (Washington University, priority 2020, dated 2024).
# “Also recorded” adds a separate entry of the source.
# Key:
# K562 cells [1] = assay: JQ1 treatment of K562 cells, CD24 surface staining by flow cytometry; format: cell-based, human
# Protocol: HCT-116, N2a, HEK293T, and HepG2 cells were cultured in Dulbecco's Modified Eagle Medium (DMEM) supplemented with 10% fetal bovine serum (FBS) and 1% of either penicillin-streptomycin or antibiotic-antimycotic. K562 (unless otherwise indicated) and OCM-1A cells were grown under the same conditions as described above, replacing DMEM with RPMI 1640 Medium. Cells were grown at 37° C. with 5% carbon dioxide (CO2). Media was replenished every 2 days. HepG2 cells were a gift from the Genome Engineering iPSC Center (GEiC) at Washington University in St. Louis School of Medicine. OCM-1A cells were a gift from Dr. Michael Onken. For the CD24^high/CD24^low cell state analyses, K562 cells were grown in IMDM containing 10% v/v FBS and 1% penicillin-streptomycin at 37° C. with 5% CO2. Frozen aliquots were thawed and passaged every 48 hours until they reached a maximum concentration of 800,000 cells/ml. For experiments, cells were seeded at mid-log phase concentrations, around 400,000 cells/ml. At this point, ratio of CD24^high/CD24^low cells was approximately 1:1, as determined by flow cytometry.
# CD24 surface protein was quantified using monoclonal human antibodies. Cells were spun down at 300 g for 3 minutes and washed twice with 1 mL of Cell Staining Buffer. […] All samples were measured on a Beckman-Coulter CytoFLEX S flow cytometer. […]
# MYC and CD24 mRNA = assay: qRT-PCR for MYC and CD24 expression in K562 cells treated with JQ1; format: cell-based, human; conditions: K562, 250 nM JQ1, first 24 hours (FIG. 14C)
# Protocol: Cells were pelleted, resuspended in 300 μl of RNA CellProtect, and stored at −80° C. When we were ready to extract RNA, we thawed cells, prepared samples using QIAGEN RNEasy Plus Mini Kit, and quantitated with the Qubit RNA High Sensitivity kit. We reverse transcribed 500 ng of RNA with the SuperScript VILO cDNA Synthesis Kit in a 20 μl reaction, with the following thermocycling parameters: 25° C. for 10 minutes; 42° C. for 2 hours; 85° C. for 5 minutes. We then performed PCR with 2 μl of the RT product as template, 1 μl each of forward and reverse primer (10 μM), 6 μl ddH2O, and 10 μl PowerUp SYBR Green Master Mix. We ran the PCR on an ABI QuantStudio 3 with the following settings: 2 minutes at 50° C., then 2 minutes at 95° C. (hot start); 45 cycles of 95° C. for 15 s followed by 60° C. for 1 minute. We generated melt curves after each PCR and all samples yielded a single peak. Gene-specific primers were obtained from PrimerBank (Wang et al., 2012b). Data were normalized to the levels of […].
# K562 cells [2] = assay: Imatinib treatment of K562 cells after JQ1 pretreatment (CD24, annexin V/PI staining); format: cell-based, human
# Protocol: CD24 surface protein was quantified using monoclonal human antibodies. Cells were spun down at 300 g for 3 minutes and washed twice with 1 mL of Cell Staining Buffer. The cell pellet was then resuspended in 50 μl of Cell Staining Buffer containing 0.2 μg of either CD24-APC or CD24-BV421. The tube was rotated at 4° C. in the dark for 30 minutes. After, cells were washed twice (as before) and finally resuspended in 200 μl of Cell Staining Buffer. Cells were excited with 450/45 and 660/20 lasers (wavelength/filter bandwidth, both in nm). For concomitant analysis of DNA content, we used CD24-APC. Cells were incubated with 10 μg/ml Hoechst 33342 in 5 mL of growth medium for 30 minutes prior to the staining protocol. For simultaneous assessment of apoptosis, cells were stained with CD24-BV421. After the final wash, instead of resuspending in 200 μl of Cell Staining Buffer, cells were washed twice with Annexin V Staining Buffer. […] All samples were measured on a Beckman-Coulter CytoFLEX S flow cytometer. […]
# For the analysis of annexin V levels in either JQ1- or DMSO-treated CD24^high and CD24^low cells, we used a three-way ANOVA with treatment, cell state, and day as independent variables. […] For the cell cycle inhibitor experiment, data were analyzed using a one-way ANOVA with Dunnett's post hoc test using either DMSO or EtOH (for RO-3306) as controls.
# K562 cells [3] = assay: Cell cycle perturbation of K562 cells (DNA content, CD24, annexin V/PI); format: cell-based, human; conditions: five days, one-way ANOVA p<0.01 (FIG. 14H)
# Protocol: CD24 surface protein was quantified using monoclonal human antibodies. Cells were spun down at 300 g for 3 minutes and washed twice with 1 mL of Cell Staining Buffer. The cell pellet was then resuspended in 50 μl of Cell Staining Buffer containing 0.2 μg of either CD24-APC or CD24-BV421. The tube was rotated at 4° C. in the dark for 30 minutes. After, cells were washed twice (as before) and finally resuspended in 200 μl of Cell Staining Buffer. Cells were excited with 450/45 and 660/20 lasers (wavelength/filter bandwidth, both in nm). For concomitant analysis of DNA content, we used CD24-APC. Cells were incubated with 10 μg/ml Hoechst 33342 in 5 mL of growth medium for 30 minutes prior to the staining protocol. For simultaneous assessment of apoptosis, cells were stained with CD24-BV421. After the final wash, instead of resuspending in 200 μl of Cell Staining Buffer, cells were washed twice with Annexin V Staining Buffer. Cells were then incubated in 50 μl Annexin V Staining Buffer containing 0.2 μg Annexin V-FITC and 100 μg/ml propidium iodide (PI). The reaction was incubated for 15 minutes at room temperature in the dark. Afterward, we added 150 μl of Annexin V Staining Buffer and proceeded to flow cytometry. All samples were measured on a Beckman-Coulter CytoFLEX S flow cytometer. Cells were excited with 450/45, 525/40, and 610/20 lasers. We collected 10,000 events per sample. The resulting data were processed with FlowJo Software for Mac Version 10.
# We perturbed the cell cycle with lovastatin and nocodazole, two drugs classically used to synchronize cells in culture (Jackman and O'Connor, 2001), as well as the cyclin-dependent kinase inhibitors CVT-313 (Brooks et al., 1997) and RO-3306 (Vassilev et al., 2006). All drugs were dissolved in DMSO except nocodazole, which was dissolved in ethanol. […] Media was refreshed every 48 hours. After 36 hours of treatment, we stained for CD24 levels and nuclear DNA content. We gated for live, single cells using the forward scatter (FSC) and side scatter channels (SSC). Univariate cell cycle analysis was performed with FlowJo. We confirmed that all drugs perturbed cell cycle by altering the proportions of cells in either G1 or G2/M phase (FIG. 14G). […] Cultures remained under drug treatment until five days had elapsed, at which point we measured CD24 levels and stained for apoptosis (FIG. 14H). As before, we set gates to exclude debris to quantitate annexin V and PI, and measured CD24 in live cells gated on FSC and SSC. The G2 inhibitors, in particular, had very few cells in the FSC/SSC gate (typically below 5%).
# For the analysis of annexin V levels in either JQ1- or DMSO-treated CD24^high and CD24^low cells, we used a three-way ANOVA with treatment, cell state, and day as independent variables. […] Multiple hypothesis correction was performed using Tukey's honestly significant difference. For the cell cycle inhibitor experiment, data were analyzed using a one-way ANOVA with Dunnett's post hoc test using either DMSO or EtOH (for RO-3306) as controls.
# [4] = system: MNNG/HOS osteosarcoma cells; conditions: as single agent; cited from earlier work
smiles,measurement,setting,value
Cc1sc2c(c1C)C(c1ccc(Cl)cc1)=N[C@@H](CC(=O)OC(C)(C)C)c1nnc(C)n1-2 [JQ1],time course of conversion to CD24low state,"K562 cells [1]; K562, 250 nM JQ1, 7-day time course (FIG. 6D), rapid over first two days, stable at one week",plateaus at day four; also recorded: plateaued by day 4
same,CD24low cells in the population after JQ1 exposure,"K562 cells [1]; K562, 250 nM JQ1, 96 h (FIG. 6C), start equal proportions CD24high/CD24low",> 95%
same,time of JQ1 exposure within which MYC mRNA levels fell,MYC and CD24 mRNA,≤ 3 h
same,sensitivity of K562 cells to imatinib,"K562 cells [2]; BET inhibitor pretreatment, then imatinib 1 μM",sensitizes K562 cells to imatinib
same,fraction of CD24high cells after pretreatment (mean),"K562 cells [2]; K562, 250 nM JQ1 for five days, DMSO group 54%",17%
same,reduction in CD24high cells compared with cell cycle inhibitors,K562 cells [3]; 250 nM JQ1,greatest reduction
same,"apoptosis compared with lovastatin, its closest competitor",K562 cells [3]; annexin V/PI,significantly less apoptosis
same,tumor volume and weight,[4],had no effect on either
